Among the data in PubChem BioAssay AID220 (DTP/NCI, 2004) are T/C values, retold here.

Several values for one entry are separate records, joined by “and”; a condition that tells them apart may be missing. Identical values can stand only once. Results filed as inconclusive are left out. Residues, ends and D or L forms follow the SMILES beside them. *: point of attachment. Trt = c1ccc(C(c2ccccc2)(c2ccccc2)*)cc1; Cbz = O=C(OCc1ccccc1)*

The test concerns CD8F1 mice, subcutaneous mammary adenocarcinoma, T/C%. Kind of test: NCI In Vivo Anticancer Drug Screen. Data for tumor model Mammary Adenocarcinoma CD8F1 (subcutaneous) in CD8F1. The settings on record: higher = larger tumour. Put shortly:
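Mice carrying transplanted tumors received test compound, and survival or tumor size was recorded. Each value is the treated-group measurement divided by the corresponding measurement in vehicle-dosed controls.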

Where [1] appears, read: endpoint: median tumor weight (est.), dose: 12.5 mg/kg/injection, schedule: Q07DX005 (ip), vehicle: saline with Tween-80.
Setting [2] is: endpoint: median tumor weight (est.), dose: 25.0 mg/kg/injection, schedule: Q07DX005 (ip), vehicle: saline with Tween-80.
The mark [3] stands for this setting: endpoint: median tumor weight (est.), dose: 50.0 mg/kg/injection, schedule: Q07DX005 (ip), vehicle: saline with Tween-80.
The mark [4] stands for this setting: endpoint: median tumor weight (est.), dose: 200.0 mg/kg/injection, schedule: Q07DX005 (ip), vehicle: saline with Tween-80.
The mark [5] stands for this setting: endpoint: median tumor weight (est.), dose: 100.0 mg/kg/injection, schedule: Q07DX005 (ip), vehicle: saline with Tween-80.

As for `Nc1ccc(S(N)(=O)=O)cc1`, the T/C (endpoint: median tumor weight change, dose: 62.5 mg/kg/injection, schedule: Q01DX001 (ip), vehicle: saline with Tween-80) is 112 % of control; the T/C (endpoint: median tumor weight change, dose: 125.0 mg/kg/injection, schedule: Q01DX001 (ip), vehicle: saline with Tween-80) was 110 % of control; the T/C (endpoint: median tumor weight change, dose: 250.0 mg/kg/injection, schedule: Q01DX001 (ip), vehicle: saline with Tween-80) was 88 % of control; the T/C (endpoint: median tumor weight change, dose: 500.0 mg/kg/injection, schedule: Q01DX001 (ip), vehicle: saline with Tween-80) was 64 % of control; the T/C (endpoint: median tumor weight change, dose: 1000.0 mg/kg/injection, schedule: Q01DX001 (ip), vehicle: saline with Tween-80) is 124 % of control.

Turning to `CC(Cc1ccc(O)cc1)NCC(O)c1ccc(O)c(O)c1` (stereo unspecified), the T/C by setting is: under setting [1], 49 % of control; under setting [2], 90 % of control; under setting [3], 106 % of control; under setting [4], 110 % of control; (endpoint: median tumor weight (est.), dose: 400.0 mg/kg/injection, schedule: Q07DX005 (ip), vehicle: saline with Tween-80) 84 % of control.

Consider `CCN1/C(=C/C=C/C=C\C=C\c2sc3ccc4ccccc4c3[n+]2CC)Sc2ccc3ccccc3c21`, for which the T/C (endpoint: median tumor weight change, dose: 25.0 mg/kg/injection, schedule: Q01DX001 (ip), vehicle: saline with Tween-80) was 70 % of control and 76 % of control; the T/C (endpoint: median tumor weight change, dose: 100.0 mg/kg/injection, schedule: Q01DX001 (ip), vehicle: saline with Tween-80) was 32 % of control and 53 % of control; the T/C (endpoint: median tumor weight change, dose: 200.0 mg/kg/injection, schedule: Q01DX001 (ip), vehicle: saline with Tween-80) is 69 % of control.

For the compound `COc1c(C=O)c2c(c(OC)c1OC)-c1ccc(OC)c(=O)cc1[C@@H](NC(C)=O)CC2`, the T/C is 76 % of control (endpoint: median tumor weight change, dose: 8.0 mg/kg/injection, schedule: Q01DX001 (ip), vehicle: Klucel (hydroxypropylcellulose) (HPC)); 93 % of control (endpoint: median tumor weight change, dose: 15.62 mg/kg/injection, schedule: Q01DX001 (ip), vehicle: Klucel (hydroxypropylcellulose) (HPC)); 88 % of control (endpoint: median tumor weight change, dose: 16.0 mg/kg/injection, schedule: Q01DX001 (ip), vehicle: Klucel (hydroxypropylcellulose) (HPC)); 54 % of control (endpoint: median tumor weight change, dose: 31.0 mg/kg/injection, schedule: Q01DX001 (ip), vehicle: Klucel (hydroxypropylcellulose) (HPC)); 69 % of control (endpoint: median tumor weight change, dose: 31.25 mg/kg/injection, schedule: Q01DX001 (ip), vehicle: Klucel (hydroxypropylcellulose) (HPC)); 17 % of control (endpoint: median tumor weight change, dose: 62.0 mg/kg/injection, schedule: Q01DX001 (ip), vehicle: Klucel (hydroxypropylcellulose) (HPC)). Also, the T/C (endpoint: median tumor weight change, dose: 62.5 mg/kg/injection, schedule: Q01DX001 (ip), vehicle: Klucel (hydroxypropylcellulose) (HPC)) is 7 % of control.

As to `BrC1c2cccc3cccc(c23)C1Br` (stereo unspecified), the T/C by setting is: under setting [1], 113 % of control; under setting [2], 88 % of control; under setting [3], 111 % of control; under setting [5], 117 % of control; under setting [4], 85 % of control.

As to `O=[N+]([O-])O.O=[N+]([O-])O.[NH-]C1CCCCC1[NH-].[Pt+2]` (stereo unspecified), the T/C reads like this: (endpoint: median tumor weight (est.), dose: 0.5 mg/kg/injection, schedule: Q07DX005 (ip), vehicle: dextrose) 46 % of control and 52 % of control; (endpoint: median tumor weight (est.), dose: 2.0 mg/kg/injection, schedule: Q07DX005 (ip), vehicle: dextrose) 50 % of control; (endpoint: median tumor weight (est.), dose: 4.0 mg/kg/injection, schedule: Q07DX005 (ip), vehicle: dextrose) 29 % of control and 38 % of control; (endpoint: median tumor weight (est.), dose: 8.0 mg/kg/injection, schedule: Q07DX005 (ip), vehicle: dextrose) 12 % of control and 29 % of control.

For the compound `CCOC(=O)C(N)CSC(=O)NC` (stereo unspecified), the T/C (endpoint: median tumor weight change, dose: 100.0 mg/kg/injection, schedule: Q01DX001 (ip), vehicle: saline) was 115 % of control; the T/C (endpoint: median tumor weight change, dose: 200.0 mg/kg/injection, schedule: Q01DX001 (ip), vehicle: saline) is 81 % of control; the T/C (endpoint: median tumor weight change, dose: 250.0 mg/kg/injection, schedule: Q01DX001 (ip), vehicle: saline) was 91 % of control and 111 % of control; the T/C (endpoint: median tumor weight change, dose: 400.0 mg/kg/injection, schedule: Q01DX001 (ip), vehicle: saline) was 86 % of control; the T/C (endpoint: median tumor weight change, dose: 500.0 mg/kg/injection, schedule: Q01DX001 (ip), vehicle: saline) is 53 % of control and 74 % of control; the T/C (endpoint: median tumor weight change, dose: 800.0 mg/kg/injection, schedule: Q01DX001 (ip), vehicle: saline) is 96 % of control.

On to `O=C1N[C@H]2[C@H](O)[C@H](O)[C@@H](O)[C@H](O)[C@@H]2c2cc3c(c(O)c21)OCO3`, for which the T/C reads like this: (endpoint: median tumor weight change, dose: 1.25 mg/kg/injection, schedule: Q01DX005 (ip), vehicle: saline + alcohol) 110 % of control; (endpoint: median tumor weight change, dose: 2.5 mg/kg/injection, schedule: Q01DX005 (ip), vehicle: saline + alcohol) 66 % of control; (endpoint: median tumor weight change, dose: 5.0 mg/kg/injection, schedule: Q01DX005 (ip), vehicle: saline + alcohol) 48 % of control.

For the compound `CC[C@](C)(O)C(=O)O[C@H]1C(=O)O[C@@H]2C[C@H]3C(C)=CC(=O)[C@@H](O)[C@]3(C)[C@H]3[C@@]4(O)OC[C@]32[C@@H]1[C@@H](C)[C@H]4O`, the T/C (endpoint: median tumor weight (est.), dose: 0.06 mg/kg/injection, schedule: Q07DX005 (ip), vehicle: Klucel (hydroxypropylcellulose) (HPC)) was 116 % of control; the T/C (endpoint: median tumor weight (est.), dose: 0.12 mg/kg/injection, schedule: Q07DX005 (ip), vehicle: Klucel (hydroxypropylcellulose) (HPC)) is 108 % of control; the T/C (endpoint: median tumor weight (est.), dose: 0.5 mg/kg/injection, schedule: Q07DX005 (ip), vehicle: Klucel (hydroxypropylcellulose) (HPC)) is 73 % of control; the T/C (endpoint: median tumor weight change, dose: 1.0 mg/kg/injection, schedule: Q01DX001 (ip), vehicle: Klucel (hydroxypropylcellulose) (HPC)) was 79 % of control.

With `OC1CCCC2CCC[N-]C12.OC1CCCC2CCC[N-]C12.[Mn+2]` (stereo unspecified), the T/C by setting is: (endpoint: median tumor weight (est.), dose: 12.5 mg/kg/injection, schedule: Q07DX005 (ip), vehicle: Klucel (hydroxypropylcellulose) (HPC)) 83 % of control; (endpoint: median tumor weight (est.), dose: 25.0 mg/kg/injection, schedule: Q07DX005 (ip), vehicle: Klucel (hydroxypropylcellulose) (HPC)) 94 % of control; (endpoint: median tumor weight (est.), dose: 50.0 mg/kg/injection, schedule: Q07DX005 (ip), vehicle: Klucel (hydroxypropylcellulose) (HPC)) 81 % of control; (endpoint: median tumor weight (est.), dose: 100.0 mg/kg/injection, schedule: Q07DX005 (ip), vehicle: Klucel (hydroxypropylcellulose) (HPC)) 67 % of control; (endpoint: median tumor weight (est.), dose: 200.0 mg/kg/injection, schedule: Q07DX005 (ip), vehicle: Klucel (hydroxypropylcellulose) (HPC)) 43 % of control.

`C/C=C/C=C/c1cc2cc3c(c(O)c2c(=O)[nH]1)C1(CC3)C(O)=c2c(=O)c3c(=O)cc(OC)c(=O)c=3c(=O)c2=C1O` (stereo unspecified): the T/C was 106 % of control (endpoint: median tumor weight change, dose: 2.5 mg/kg/injection, schedule: Q01DX001 (ip), vehicle: DMSO) and 79 % of control (endpoint: median tumor weight change, dose: 5.0 mg/kg/injection, schedule: Q01DX001 (ip), vehicle: DMSO).

Consider `COC(=O)C(CSC(c1ccccc1)(c1ccccc1)c1ccccc1)NC(=O)C(CC(N)=O)NC(=O)OCc1ccccc1` (stereo not drawn) (Cbz-Asn-Cys(Trt)-OMe; configuration not given here), for which the T/C was 101 % of control and 116 % of control (endpoint: median tumor weight change, dose: 125.0 mg/kg/injection, schedule: Q01DX001 (ip), vehicle: distilled water + Tween-80); 50 % of control (endpoint: median tumor weight change, dose: 500.0 mg/kg/injection, schedule: Q01DX001 (ip), vehicle: distilled water + Tween-80); 40 % of control and 57 % of control (endpoint: median tumor weight change, dose: 2000.0 mg/kg/injection, schedule: Q01DX001 (ip), vehicle: distilled water + Tween-80).

Consider `Cc1cc(NCCCCCCNc2cc(C)nc3cc(N(C)C)ccc23)c2ccc(N(C)C)cc2n1`, for which the T/C by setting is: (endpoint: median tumor weight change, dose: 31.0 mg/kg/injection, schedule: Q01DX001 (ip), vehicle: distilled water + Tween-80 + alcohol) 42 % of control; (endpoint: median tumor weight change, dose: 62.0 mg/kg/injection, schedule: Q01DX001 (ip), vehicle: distilled water + Tween-80 + alcohol) 103 % of control; (endpoint: median tumor weight change, dose: 125.0 mg/kg/injection, schedule: Q01DX001 (ip), vehicle: distilled water + Tween-80 + alcohol) 36 % of control.

For the compound `COC(=O)C(Cl)(Cl)N=Nc1c(Cl)cc(Cl)c(C)c1Cl`, the T/C runs as follows: under setting [2], 104 % of control; under setting [5], 71 % of control; under setting [4], 85 % of control and 110 % of control; (endpoint: median tumor weight change, dose: 400.0 mg/kg/injection, schedule: Q01DX001 (ip), vehicle: saline with Tween-80) 78 % of control.

Take `COC1C(OC(=O)/C=C/C=C/C=C/C=C/C(=O)O)CCC2(CO2)C1C1(C)OC1CC=C(C)C` (stereo unspecified): the T/C is, setting by setting: (endpoint: median tumor weight (est.), dose: 25.0 mg/kg/injection, schedule: Q07DX005 (ip), vehicle: suspension in saline) 102 % of control; (endpoint: median tumor weight (est.), dose: 50.0 mg/kg/injection, schedule: Q07DX005 (ip), vehicle: suspension in saline) 106 % of control; (endpoint: median tumor weight (est.), dose: 100.0 mg/kg/injection, schedule: Q07DX005 (ip), vehicle: suspension in saline) 91 % of control; (endpoint: median tumor weight (est.), dose: 200.0 mg/kg/injection, schedule: Q07DX005 (ip), vehicle: suspension in saline) 94 % of control; (endpoint: median tumor weight change, dose: 125.0 mg/kg/injection, schedule: Q01DX001 (ip), vehicle: suspension in saline) 85 % of control; (endpoint: median tumor weight change, dose: 250.0 mg/kg/injection, schedule: Q01DX001 (ip), vehicle: suspension in saline) 56 % of control. Further, the T/C (endpoint: median tumor weight change, dose: 500.0 mg/kg/injection, schedule: Q01DX001 (ip), vehicle: suspension in saline) was 58 % of control.
